Experimental data from patent US10894798B2, “Substituted dihydropyrrolopyrazole derivative” (UBE INDUSTRIES, LTD., priority 2015, dated 2021).

What was measured:
PLK1 = biological target: T1, PLK1 (Homo sapiens, UniProt P53350); assay: PLK1 enzyme (polo-like kinase) inhibition test; format: biochemical; conditions: [γ-33P]ATP, casein substrate; Ki=IC50/(1+S/Km); read-out: Ki value of PLK1 inhibitory activity
T1 construct: purchased Carna Biosciences, Inc. 05-157
Protocol: The preparation of a buffer solution was performed by mixing a 3-morpholinopropanesulfonic acid buffer solution (MOPS buffer solution) (pH 7.0), dithiothreitol (DTT), and magnesium acetate (Mg(CH3COO)2). A 1 mM [γ-^33P]ATP solution was used by diluting a 10 mM ATP solution and a commercially available [γ-^33P]ATP solution (manufactured by Perkin Elmer, Inc., Code No. NEG-302H) with the buffer solution. A PLK1 solution was used by diluting commercially available PLK1 (manufactured by Carna Biosciences, Inc., Catalog No. 05-157) with the buffer solution. A substrate solution was used by diluting casein with the buffer solution. As for the preparation of a reaction solution, the buffer solution, the 500 μM [γ-^33P]ATP solution, the PLK1 solution, and the substrate solution were mixed at 4° C. to obtain a reaction solution.
(§1) PLK1 enzyme reaction was performed by adding 5 μL of a test compound solution prepared with 10% DMSO/90% injectable distilled water, and 45 μL of the reaction solution in a 1.5 mL microtube at 4° C. and reacting in the microtube at 30° C. for 20 minutes in a water bath incubator. After the reaction, a 10% aqueous trichloroacetic acid (TCA) solution was added to each microtube while cooled to 4° C., and mixed in a vortex mixer to terminate the reaction. The resultant was left standing at 4° C. for 10 minutes and then centrifuged, and the supernatant was discarded. Next, a 2% aqueous trichloroacetic acid (TCA) solution was added thereto, mixed in a vortex mixer, and then centrifuged, and the supernatant was discarded. This washing operation was performed twice. After the washing, precipitates were dissolved in a 1 N aqueous sodium hydroxide (NaOH) solution, and the energy quantity (radioactivity) of the reaction product was measured with a liquid scintillation counter.
The calculation of the inhibitory activity of the test compound against PLK1 was performed as a test compound concentration inhibiting 50% of the amount of ^33P bound to casein (IC50 value) by using EXSUS (version 8.1.0, manufactured by CAC Exicare Corp.).
(§2) The calculation of a Ki value was performed according to the following calculation expression wherein S represents the concentration of ATP contained in the reaction solution, and Km represents a Michaelis-Menten constant: Ki=IC50/(1+S/Km)

[1] = system: human large intestine cancer cell line (HCT-116); assay: Human large intestine cancer (HCT-116) cell growth inhibition test; format: cell-based; conditions: HCT-116, 72 h, culture for 3 days, sulforhodamine B, read-out: GI50 value, HCT-116 cell growth inhibition
Protocol: The measurement of a human large intestine cancer cell growth inhibitory effect was carried out by modifying the method of Simak et al. (Cancer Research, 69, 6208 (2009)).
A human large intestine cancer cell line (HCT-116, obtained from DS Pharma Biomedical Co., Ltd.) was cultured in a McCoy's 5A medium (manufactured by Thermo Fisher Scientific, Inc.) containing 10% fetal bovine serum (FBS) (manufactured by Thermo Fisher Scientific, Inc.) and 1% penicillin/streptomycin/amphotericin B (manufactured by Thermo Fisher Scientific, Inc.) and inoculated at 0.5 to 2.0×10^3 cells/well in a 96-well plate. After overnight culture in a carbon dioxide incubator, the medium was replaced with a fresh medium on the next day, and a test compound dissolved in DMSO (final DMSO concentration: 0.1%) was added thereto and left standing in a carbon dioxide incubator. After culture for 3 days, the absorbance thereof was measured by using In Vitro Toxicology Assay Kit Sulforhodamine B based (manufactured by Sigma-Aldrich Co. LLC.).
The rate of inhibition of cell growth at each concentration was calculated from the test compound concentration and the absorbance of sulforhodamine B, and the concentration of the test compound necessary for inhibiting 50% of cell growth (GI50 value) was calculated by using EXSUS (version 8.1.0, manufactured by CAC Exicare Corp.).

CDK7 = biological target: T2, CDK7 (Homo sapiens, UniProt P50613); assay: CDK7 enzyme inhibition test; format: biochemical; conditions: [γ-33P]ATP, MBP substrate, 60 min preincubation at 25°C; Ki=IC50/(1+S/Km); read-out: Ki value of CDK7 inhibitory activity
T2 construct: purchased Carna Biosciences, Inc. 04-108
T2 sequence (P50613 whole entry): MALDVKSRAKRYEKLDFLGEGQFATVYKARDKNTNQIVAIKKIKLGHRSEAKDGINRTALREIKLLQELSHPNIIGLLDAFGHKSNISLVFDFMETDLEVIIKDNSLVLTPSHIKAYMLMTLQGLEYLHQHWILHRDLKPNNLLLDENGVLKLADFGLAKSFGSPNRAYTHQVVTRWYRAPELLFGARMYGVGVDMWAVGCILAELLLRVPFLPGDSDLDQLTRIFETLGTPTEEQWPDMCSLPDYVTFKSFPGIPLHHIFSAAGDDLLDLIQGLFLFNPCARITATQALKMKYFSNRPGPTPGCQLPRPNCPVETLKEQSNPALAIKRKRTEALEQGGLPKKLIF
T2 sequence (P51946 whole entry partner): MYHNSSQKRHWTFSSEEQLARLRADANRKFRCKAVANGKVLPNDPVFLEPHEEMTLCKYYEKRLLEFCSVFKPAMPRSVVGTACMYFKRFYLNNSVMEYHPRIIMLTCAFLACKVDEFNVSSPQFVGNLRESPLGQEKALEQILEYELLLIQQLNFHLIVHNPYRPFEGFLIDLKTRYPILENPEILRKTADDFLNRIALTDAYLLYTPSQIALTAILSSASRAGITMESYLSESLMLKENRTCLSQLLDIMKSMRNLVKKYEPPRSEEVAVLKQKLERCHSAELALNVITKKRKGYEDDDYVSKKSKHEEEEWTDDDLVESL
T2 sequence (P51948 whole entry partner): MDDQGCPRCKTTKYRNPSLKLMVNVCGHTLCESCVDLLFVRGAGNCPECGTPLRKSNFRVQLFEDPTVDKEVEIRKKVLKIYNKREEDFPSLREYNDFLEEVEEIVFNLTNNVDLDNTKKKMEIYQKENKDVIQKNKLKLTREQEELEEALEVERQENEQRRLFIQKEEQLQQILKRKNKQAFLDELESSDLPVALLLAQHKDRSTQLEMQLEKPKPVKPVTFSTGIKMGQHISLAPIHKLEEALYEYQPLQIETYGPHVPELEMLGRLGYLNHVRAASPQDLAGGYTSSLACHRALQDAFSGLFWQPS
Protocol: (§3) The preparation of a buffer solution was performed by mixing a N-2-hydroxyethylpiperazine-N′-2-ethanesulfonic acid buffer solution (HEPES buffer solution) (pH 7.4), dithiothreitol (DTT), Triton X-100, and magnesium chloride (MgCl2). A 500 μM [γ-^33P]ATP solution was used by diluting a 10 mM ATP solution and a commercially available [γ-^33P]ATP solution (manufactured by PerkinElmer, Inc., Code No. NEG-302H) with the buffer solution. A CDK7 solution was used by diluting commercially available CDK7 (manufactured by Carna Biosciences, Inc., Catalog No. 04-108) with the buffer solution. A substrate solution was used by diluting myelin basic protein (MBP) with the buffer solution. As for the preparation of a reaction solution, the buffer solution, the CDK7 solution, and the substrate solution were mixed at 4° C. to obtain a reaction solution.
CDK7 enzyme reaction was performed by adding 5 μL of a test compound solution prepared with 10% DMSO/90% injectable distilled water, and 40 μL of the reaction solution to a 1.5 mL microtube at 4° C. and preincubating the microtube at 25° C. for 60 minutes in a water bath incubator. Subsequently, reaction was performed at 30° C. for 20 minutes by adding 5 μL of the 500 μM [γ-^33P]ATP solution. After the reaction, a 10% aqueous trichloroacetic acid (TCA) solution was added to each microtube while cooled to 4° C., and mixed in a vortex mixer to terminate the reaction. The resultant was left standing at 4° C. for 10 minutes and then centrifuged, and the supernatant was discarded. Next, a 2% aqueous trichloroacetic acid (TCA) solution was added thereto, mixed in a vortex mixer, and then centrifuged, and the supernatant was discarded. This washing operation was performed twice. After the washing, precipitates were dissolved in a 1 N aqueous sodium hydroxide (NaOH) solution, and the energy quantity (radioactivity) of the reaction product was measured with a liquid scintillation counter.
The calculation of the inhibitory activity of the test compound against CDK7 was performed as a test compound concentration inhibiting 50% of the amount of ^33P bound to MBP (IC50 value) by using EXSUS (version 8.1.0, manufactured by CAC Exicare Corp.).
as §2

CDK2 = biological target: T3, CDK2 (Homo sapiens, UniProt P24941); assay: CDK2 enzyme inhibition test; format: biochemical; conditions: [γ-33P]ATP, MBP substrate; Ki=IC50/(1+S/Km); read-out: Ki value of CDK2 inhibitory activity
T3 construct: purchased Invitrogen Corp. PV3267
Protocol: as §3, with “by Perkin Elmer,” for “by PerkinElmer,”, “A CDK2” for “A CDK7”, “available CDK2” for “available CDK7”, “by Invitrogen Corp.,” for “by Carna Biosciences, Inc.,”, “No. PV3267)” for “No. 04-108)”, “the 500 μM [γ-^33P]ATP solution, the CDK2” for “the CDK7”
as §1, with “CDK2 enzyme reaction” for “PLK1 enzyme reaction”, “mixed in vortex mixer,” for “mixed in a vortex mixer,”
The calculation of the inhibitory activity of the test compound against CDK2 was performed as a test compound concentration inhibiting 50% of the amount of ^33P bound to MBP (IC50 value) by using EXSUS (version 8.1.0, manufactured by CAC Exicare Corp.).
as §2

T1 sequence (P53350 whole entry): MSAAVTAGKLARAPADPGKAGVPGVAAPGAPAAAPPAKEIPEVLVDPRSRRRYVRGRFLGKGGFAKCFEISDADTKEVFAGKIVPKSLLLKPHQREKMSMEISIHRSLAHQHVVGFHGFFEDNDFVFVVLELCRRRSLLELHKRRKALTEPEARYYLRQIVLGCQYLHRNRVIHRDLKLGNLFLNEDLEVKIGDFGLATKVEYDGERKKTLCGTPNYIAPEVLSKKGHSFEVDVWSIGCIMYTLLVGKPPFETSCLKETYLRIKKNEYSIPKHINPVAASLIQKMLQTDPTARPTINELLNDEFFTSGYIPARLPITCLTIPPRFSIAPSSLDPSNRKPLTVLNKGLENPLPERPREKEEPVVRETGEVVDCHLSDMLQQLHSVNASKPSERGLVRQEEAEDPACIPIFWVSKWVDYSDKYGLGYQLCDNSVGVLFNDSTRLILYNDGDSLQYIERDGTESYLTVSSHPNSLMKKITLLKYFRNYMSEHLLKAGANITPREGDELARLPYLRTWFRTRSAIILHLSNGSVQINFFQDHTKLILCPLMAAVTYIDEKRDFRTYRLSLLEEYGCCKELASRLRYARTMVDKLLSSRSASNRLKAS

Question: `CC1(C)c2[nH]nc(NC(=O)C3([Si](C)(C)C)CCC3)c2CN1C(=O)Nc1c(F)cccc1C(F)(F)F` [IV-153, N-[2-Fluoro-6-(trifluoromethyl)phenyl]-6,6-dimethyl-3-[1-(trimethylsilyl)cyclobutanecarboxamido]-4,6-dihydropyrrolo[3,4-c]pyrazole-5(1H)-carboxamide] was tested. Which Ki (PLK1) did it give?
Answer: ≥ 5000 nM

Question: And the GI50 [1]?
Answer: ≤ 100 nM

Question: And the Ki (CDK7)?
Answer: ≤ 50 nM

Question: For `CC1(C)c2[nH]nc(NC(=O)C3([Si](C)(C)C)CCC3)c2CN1C(=O)Nc1cc(F)ccc1F` [IV-103, N-(2,5-Difluorophenyl)-6,6-dimethyl-3-[1-(trimethylsilyl)cyclobutanecarboxamido]-4,6-dihydropyrrolo[3,4-c]pyrazole-5(1H)-carboxamide], which GI50 [1] is on record?
Answer: ≤ 100 nM

Question: And the Ki (CDK7)?
Answer: ≤ 50 nM

Question: With `CC1(C)c2[nH]nc(NC(=O)C3([Si](C)(C)C)CCC3)c2CN1C(=O)Nc1ccccc1OC(F)(F)F` [IV-93, 6,6-Dimethyl-N-[2-(trifluoromethoxy)phenyl]-3-[1-(trimethylsilyl)cyclobutanecarboxamido]-4,6-dihydropyrrolo[3,4-c]pyrazole-5(1H)-carboxamide] as the molecule, how does the GI50 [1] read?
Answer: ≤ 100 nM

Question: What about the Ki (CDK7) of the same molecule?
Answer: ≤ 50 nM

Question: Which Ki (PLK1) does the source give for `CC1(C)c2[nH]nc(NC(=O)C3([Si](C)(C)C)CCC3)c2CN1C(=O)N1CCc2ccccc21` [I-1000, N-[5-(Indoline-1-carbonyl)-6,6-dimethyl-1,4,5,6-tetrahydropyrrolo[3,4-c]pyrazol-3-yl]-1-(trimethylsilyl)cyclobutanecarboxamide] here?
Answer: ≥ 5000 nM

Question: And the Ki (CDK2)?
Answer: ≥ 1000 nM

Question: Which results are given for `CC1(C)c2[nH]nc(NC(=O)C3([Si](C)(C)C)CCC3)c2CN1C(=O)Nc1c(F)cc(F)cc1F` [IV-599, 6,6-Dimethyl-N-(2,4,6-trifluorophenyl)-3-[1-(trimethylsilyl)cyclobutanecarboxamido]-4,6-dihydropyrrolo[3,4-c]pyrazole-5(1H)-carboxamide]?
Answer: GI50 [1]: ≤ 100 nM; Ki (CDK7): ≤ 50 nM

Question: Which results are given for `Cc1nscc1NC(=O)N1Cc2c(NC(=O)C3([Si](C)(C)C)CCC3)n[nH]c2C1(C)C` [IV-1035, 6,6-Dimethyl-N-(3-methylisothiazol-4-yl)-3-[1-(trimethylsilyl)cyclobutanecarboxamido]-4,6-dihydropyrrolo[3,4-c]pyrazole-5 (1H)-carboxamide]?
Answer: GI50 [1]: ≤ 100 nM; Ki (CDK7): ≤ 50 nM

Question: What does the source list for `Cc1cccc(NC(=O)N2Cc3c(NC(=O)C4([Si](C)(C)C)CCC4)n[nH]c3C2(C)C)c1` [IV-23, 6,6-Dimethyl-N-(m-tolyl)-3-[1-(trimethylsilyl)cyclobutanecarboxamido]-4,6-dihydropyrrolo[3,4-c]pyrazole-5(1H)-carboxamide]?
Answer: GI50 [1]: ≤ 100 nM; Ki (CDK7): ≤ 50 nM

Question: Which results are given for `CC1(C)c2[nH]nc(NC(=O)C3([Si](C)(C)C)CCC3)c2CN1C(=O)Nc1ccccc1C#N` [IV-63, N-(2-Cyanophenyl)-6,6-dimethyl-3-[1-(trimethylsilyl)cyclobutanecarboxamido]-4,6-dihydropyrrolo[3,4-c]pyrazole-5(1H)-carboxamide]?
Answer: GI50 [1]: ≤ 100 nM; Ki (CDK7): ≤ 50 nM

Question: What does the source list for `COc1ccccc1NC(=O)N1Cc2c(NC(=O)C3([Si](C)(C)C)CCC3)n[nH]c2C1(C)C` [IV-75, N-(2-Methoxyphenyl)-6,6-dimethyl-3-[1-(trimethylsilyl)cyclobutanecarboxamido]-4,6-dihydropyrrolo[3,4-c]pyrazole-5(1H)-carboxamide]?
Answer: Ki (CDK2): ≥ 1000 nM; GI50 [1]: ≤ 100 nM; Ki (CDK7): ≤ 50 nM

Question: For `CC1(C)c2[nH]nc(NC(=O)C3([Si](C)(C)C)CCC3)c2CN1C(=O)Nc1cccc(F)c1F` [IV-99, N-(2,3-Difluorophenyl)-6,6-dimethyl-3-[1-(trimethylsilyl)cyclobutanecarboxamido]-4,6-dihydropyrrolo[3,4-c]pyrazole-5(1H)-carboxamide], which GI50 [1] is on record?
Answer: ≤ 100 nM

Question: And the Ki (CDK7)?
Answer: ≤ 50 nM

Question: With `CC1(C)c2[nH]nc(NC(=O)C3([Si](C)(C)C)CCC3)c2CN1C(=O)N1CCOc2ccccc21` [I-1036, N-[5-(3,4-Dihydro-2H-benz[b][1,4]oxazine-4-carbonyl)-6,6-dimethyl-1,4,5,6-tetrahydropyrrolo[3,4-c]pyrazol-3-yl]-1-(trimethylsilyl)cyclobutanecarboxamide] as the molecule, how does the Ki (PLK1) read?
Answer: ≥ 5000 nM

Question: What about the Ki (CDK2) of the same molecule?
Answer: ≥ 1000 nM

Question: How did the Ki (CDK2) turn out when `CC1(C)c2[nH]nc(NC(=O)C3([Si](C)(C)C)CCC3)c2CN1C(=O)Nc1ccccc1Cl` [IV-9, N-(2-Chlorophenyl)-6,6-dimethyl-3-[1-(trimethylsilyl)cyclobutanecarboxamido]-4,6-dihydropyrrolo[3,4-c]pyrazole-5(1H)-carboxamide] was run?
Answer: ≥ 1000 nM

Question: What about the GI50 [1] of the same molecule?
Answer: ≤ 100 nM

Question: And the Ki (CDK7)?
Answer: ≤ 50 nM
